One data set concerns the target CYP3A4 (Homo sapiens, UniProt P08684). Conditions: for AUC(0-inf): AUCinf; for Tmax: tmax (median [min‐max]); for half-life: t½.
Data set [1] concerns the target T1, CYP2C19 (Homo sapiens, UniProt P33261). The note with it: for AUC(0-inf): AUCinf; for half-life: t½.
A further data set addresses CYP2D6 (Homo sapiens, UniProt P10635). Conditions: for AUC(0-inf) / Cmax / Tmax / half-life: female, human, plasma, oral; for AUC(0-inf): AUCinf; for Tmax: tmax (median [min‐max]); for half-life: t½.
The target in a further data set is CYP2C9 (Homo sapiens, UniProt P11712). As to the kind of experiment: Inje cocktail DDI study: losartan and EXP‐3174 PK, assessment of CYP2C9 activity. Conditions: for AUC(0-inf) / Cmax / Tmax / half-life: female, human, plasma, oral; for AUC(0-inf): AUCinf; for Tmax: tmax (median [min‐max]); for half-life: t½.
The target of data set [2] is T1, CYP2C19. Conditions: single oral 20 mg omeprazole with 100 mg ASP8477 vs alone, female subjects; ref first‐in‐human study (8477‐CL‐0001); cited from earlier work.
[3] abbreviates: cocktail alone (day 1), mean ± SD.
Where [4] appears, read: + 20 mg ASP8477 once daily (day 7), mean ± SD.
Where [5] appears, read: probe dextromethorphan, + 60 mg ASP8477 once daily (day 14), mean ± SD.
Setting [6] is: probe dextromethorphan, + 100 mg ASP8477 once daily (day 23), mean ± SD.
Setting [7] is: probe dextromethorphan, + 20 mg ASP8477 once daily (day 7).
[8] abbreviates: probe dextromethorphan, + 60 mg ASP8477 once daily (day 14).
[9] abbreviates: probe dextromethorphan, + 100 mg ASP8477 once daily (day 23).
Setting [10] is: probe dextromethorphan, + 20 mg ASP8477 once daily (day 7), mean ± SD.
[11] abbreviates: + 60 mg ASP8477 once daily (day 14), mean ± SD.
Setting [12] is: + 100 mg ASP8477 once daily (day 23), mean ± SD.
The mark [13] stands for this setting: + 20 mg ASP8477 once daily (day 7).
The mark [14] stands for this setting: + 60 mg ASP8477 once daily (day 14).
Setting [15] is: + 100 mg ASP8477 once daily (day 23).
Where [16] appears, read: female, human, plasma, oral, probe midazolam, + 20 mg ASP8477 once daily (day 7), mean ± SD.
[17] abbreviates: female, human, plasma, oral, probe midazolam, + 60 mg ASP8477 once daily (day 14), mean ± SD.
[18] abbreviates: female, human, plasma, oral, probe midazolam, + 100 mg ASP8477 once daily (day 23), mean ± SD.
Where [19] appears, read: female, human, plasma, oral, + 20 mg ASP8477 once daily (day 7), mean ± SD.
[20] abbreviates: female, human, plasma, oral, + 60 mg ASP8477 once daily (day 14), mean ± SD.
Where [21] appears, read: female, human, plasma, oral, cocktail alone (day 1), mean ± SD.

The structures appear in SMILES notation. Where two headings read alike, the source gives them in different places.

Results on eight compounds are retold here after publication PMC6593727 (Clinical Pharmacology in Drug Development, 2019).

Sequence of CYP3A4 (P08684 whole entry): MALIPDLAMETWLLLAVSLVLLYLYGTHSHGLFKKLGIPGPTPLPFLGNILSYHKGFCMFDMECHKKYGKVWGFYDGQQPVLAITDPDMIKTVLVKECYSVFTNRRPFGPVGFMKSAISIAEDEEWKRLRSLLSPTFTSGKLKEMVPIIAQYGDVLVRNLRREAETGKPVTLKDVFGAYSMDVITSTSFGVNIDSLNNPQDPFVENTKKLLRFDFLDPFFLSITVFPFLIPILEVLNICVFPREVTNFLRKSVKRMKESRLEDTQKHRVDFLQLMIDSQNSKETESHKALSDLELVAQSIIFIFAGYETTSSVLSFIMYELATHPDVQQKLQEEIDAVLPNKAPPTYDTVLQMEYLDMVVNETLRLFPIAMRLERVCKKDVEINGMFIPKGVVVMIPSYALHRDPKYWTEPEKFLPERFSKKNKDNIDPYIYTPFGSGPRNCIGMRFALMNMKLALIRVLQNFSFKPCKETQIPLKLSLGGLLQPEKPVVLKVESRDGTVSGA
Sequence of CYP2D6 (P10635 whole entry): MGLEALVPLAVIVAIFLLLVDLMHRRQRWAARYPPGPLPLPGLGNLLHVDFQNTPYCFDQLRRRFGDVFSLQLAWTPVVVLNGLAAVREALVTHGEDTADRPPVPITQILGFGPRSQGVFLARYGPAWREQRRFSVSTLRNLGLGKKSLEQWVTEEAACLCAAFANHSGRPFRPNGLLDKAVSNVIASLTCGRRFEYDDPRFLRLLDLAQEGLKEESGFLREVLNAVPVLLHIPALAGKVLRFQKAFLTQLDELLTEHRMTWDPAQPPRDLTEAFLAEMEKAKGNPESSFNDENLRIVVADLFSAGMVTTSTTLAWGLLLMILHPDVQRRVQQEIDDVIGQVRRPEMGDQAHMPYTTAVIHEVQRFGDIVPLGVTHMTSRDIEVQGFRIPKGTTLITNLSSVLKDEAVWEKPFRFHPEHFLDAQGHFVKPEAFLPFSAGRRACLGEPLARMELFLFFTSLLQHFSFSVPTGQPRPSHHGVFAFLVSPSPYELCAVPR
T1 sequence (P33261 whole entry): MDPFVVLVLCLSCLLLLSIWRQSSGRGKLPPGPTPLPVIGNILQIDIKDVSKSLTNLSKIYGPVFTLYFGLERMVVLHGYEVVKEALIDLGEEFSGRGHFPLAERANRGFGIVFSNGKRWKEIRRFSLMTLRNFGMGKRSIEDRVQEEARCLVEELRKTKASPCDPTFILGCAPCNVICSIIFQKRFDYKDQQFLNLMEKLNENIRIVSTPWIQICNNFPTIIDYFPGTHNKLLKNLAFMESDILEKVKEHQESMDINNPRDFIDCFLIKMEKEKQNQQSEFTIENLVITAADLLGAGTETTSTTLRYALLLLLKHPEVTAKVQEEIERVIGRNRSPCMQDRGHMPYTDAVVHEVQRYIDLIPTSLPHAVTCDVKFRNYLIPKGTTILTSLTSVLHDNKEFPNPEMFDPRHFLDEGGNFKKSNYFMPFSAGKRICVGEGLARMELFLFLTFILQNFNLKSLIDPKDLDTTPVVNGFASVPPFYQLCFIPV
Sequence of CYP2C9 (P11712 whole entry): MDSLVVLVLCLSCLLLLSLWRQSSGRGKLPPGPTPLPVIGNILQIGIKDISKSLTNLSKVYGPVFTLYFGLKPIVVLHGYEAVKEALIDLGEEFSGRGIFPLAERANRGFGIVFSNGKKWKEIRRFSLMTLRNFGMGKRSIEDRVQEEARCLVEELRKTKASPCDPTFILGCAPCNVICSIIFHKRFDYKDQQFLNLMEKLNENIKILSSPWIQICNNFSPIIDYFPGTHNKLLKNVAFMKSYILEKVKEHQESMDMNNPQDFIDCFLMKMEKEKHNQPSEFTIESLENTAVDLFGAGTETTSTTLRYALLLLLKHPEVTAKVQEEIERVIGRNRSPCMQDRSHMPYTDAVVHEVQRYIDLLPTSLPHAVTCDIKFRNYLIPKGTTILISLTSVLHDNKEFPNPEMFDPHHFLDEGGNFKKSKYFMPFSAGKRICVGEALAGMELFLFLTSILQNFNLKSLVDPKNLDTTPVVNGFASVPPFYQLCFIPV

The Cmax is the maximum level reached in the sampled fluid or tissue. By t½ is commonly meant the time needed for the level to fall by half in the phase considered. A low value points to rapid decline. For `OCc1ncc2n1-c1ccc(Cl)cc1C(c1ccccc1F)=NC2` [1‐OH‐Midazolam, 1‐hydroxymidazolam], the “tmax (median [min‐max])” value at CYP3A4 (cocktail alone (day 1)) was 0.52 (0.48‐1.0) h. At CYP3A4 (setting [3]), the AUCinf was 12 ± 6.1 ng·h/mL, the Cmax is given as 5.5 ± 3.0 ng/mL and the t½ amounted to 7.8 ± 13 h.

As to `COc1ccc2nc([S+]([O-])Cc3ncc(CO)c(OC)c3C)[nH]c2c1` (stereo not drawn) [5‐OH‐Omeprazole, 5‐hydroxyomeprazole], the “tmax (median [min‐max])” value on CYP2C19 [1] (cocktail alone (day 1)) is 2.0 (0.98‐4.0) h. On CYP2C19 [1] (setting [3]), this compound yielded an AUCinf of 550 ± 130 ng·h/mL, a Cmax of 230 ± 76 ng/mL and a t½ of 1.4 ± 0.56 h.

The term CL/F denotes clearance divided by bioavailability, as obtained after extravascular dosing. The AUC(0-inf) is the area under the concentration-time curve extrapolated to infinity. As a reminder, the Tmax is the time at which the peak concentration occurs. One may read the half-life as the time in which the quantity being followed falls by half. `COc1ccc2c(c1)[C@]13CCCC[C@@H]1[C@H](C2)N(C)CC3` [Dextromethorphan, dextromethorphan, reference compound] showed a CL/F on CYP2D6 (setting [3]) of 4000 ± 3200 L/h. Further, the AUC(0-inf) at CYP2D6 (setting [4]) worked out at 16 ± 12 ng·h/mL; at CYP2D6 (setting [3]), 12 ± 7.9 ng·h/mL; at CYP2D6 (setting [5]) it was 39 ± 25 ng·h/mL; on CYP2D6 (setting [6]), 65 ± 44 ng·h/mL. Moreover, the maximum concentration (Cmax) was determined as 1.8 ± 1.2 ng/mL at CYP2D6 (setting [4]), 1.3 ± 0.72 ng/mL on CYP2D6 (setting [3]), 3.8 ± 2.3 ng/mL on CYP2D6 (setting [5]) and 5.6 ± 3.1 ng/mL on CYP2D6 (setting [6]). Also, the Tmax at CYP2D6 (setting [7]) came to 3 h; at CYP2D6 (setting [8]) it was 3.1 h; at CYP2D6 (setting [9]), 3 h; at CYP2D6 (cocktail alone (day 1)), 2 h. The half-life was 7.7 ± 2.1 h on CYP2D6 (setting [10]), 9.3 ± 1.4 h on CYP2D6 (setting [5]), 9.9 ± 1.5 h on CYP2D6 (setting [6]) and 8 ± 2.5 h on CYP2D6 (setting [3]).

As to `CN1CC[C@@]23CCCC[C@@H]2[C@@H]1Cc1ccc(O)cc13` [Dextrorphan, dextrorphan], the AUC(0-inf) on CYP2D6 (setting [4]) came out at 2400 ± 420 ng·h/mL; on CYP2D6 (setting [3]) it was 2400 ± 450 ng·h/mL; on CYP2D6 (setting [5]), 2700 ± 510 ng·h/mL; at CYP2D6 (setting [6]), 3000 ± 520 ng·h/mL. The Cmax is 470 ± 110 ng/mL at CYP2D6 (setting [4]), 490 ± 133 ng/mL at CYP2D6 (setting [3]), 430 ± 110 ng/mL at CYP2D6 (setting [5]) and 400 ± 100 ng/mL at CYP2D6 (setting [6]). The Tmax stood at 2 h on CYP2D6 (setting [7]), 3.1 h on CYP2D6 (setting [8]), 3 h on CYP2D6 (setting [9]) and 2 h on CYP2D6 (cocktail alone (day 1)). Further, the half-life on CYP2D6 (setting [10]) is 6.5 ± 1.7 h; at CYP2D6 (setting [5]) it was 8.8 ± 2.1 h; at CYP2D6 (setting [6]) it was 9.9 ± 2.4 h; at CYP2D6 (setting [3]), 5.8 ± 1.2 h.

For the compound `CCCCc1nc(Cl)c(C(=O)O)n1Cc1ccc(-c2ccccc2-c2nn[nH]n2)cc1` [EXP‐3174, losartan acid], the AUC(0-inf) turned out to be 1100 ± 280 ng·h/mL on CYP2C9 (setting [4]), 960 ± 240 ng·h/mL at CYP2C9 (setting [11]), 780 ± 250 ng·h/mL at CYP2C9 (setting [12]) and 1100 ± 370 ng·h/mL on CYP2C9 (setting [3]). For the same compound, the Cmax on CYP2C9 (setting [4]) was 96 ± 48 ng/mL; at CYP2C9 (setting [11]), 54 ± 26 ng/mL; on CYP2C9 (setting [12]), 35 ± 19 ng/mL; on CYP2C9 (setting [3]) it was 100 ± 65 ng/mL. Also, the Tmax stood at 5 h on CYP2C9 (setting [13]), 8 h on CYP2C9 (setting [14]), 8.1 h on CYP2C9 (setting [15]) and 4 h on CYP2C9 (cocktail alone (day 1)). In addition, the half-life at CYP2C9 (setting [4]) is 8.8 ± 3.5 h; on CYP2C9 (setting [11]), 13 ± 3.7 h; at CYP2C9 (setting [12]), 12 ± 2.5 h; on CYP2C9 (setting [3]) it was 8 ± 0.64 h.

On to `CCCCc1nc(Cl)c(CO)n1Cc1ccc(-c2ccccc2-c2nn[nH]n2)cc1` [Losartan, losartan, reference compound], for which the apparent clearance CL/F on CYP2C9 (setting [3]) is 140 ± 61 L/h. The AUC(0-inf) at CYP2C9 (setting [4]) came to 230 ± 100 ng·h/mL; at CYP2C9 (setting [11]) it was 320 ± 140 ng·h/mL; on CYP2C9 (setting [12]), 410 ± 180 ng·h/mL; on CYP2C9 (setting [3]), 220 ± 100 ng·h/mL. Besides, the Cmax on CYP2C9 (setting [4]) was found to be 78 ± 37 ng/mL; at CYP2C9 (setting [11]), 81 ± 59 ng/mL; on CYP2C9 (setting [12]) it was 80 ± 64 ng/mL; at CYP2C9 (setting [3]), 64 ± 33 ng/mL. The Tmax came out at 0.52 h at CYP2C9 (setting [13]), 0.52 h at CYP2C9 (setting [14]), 0.5 h at CYP2C9 (setting [15]) and 1 h on CYP2C9 (cocktail alone (day 1)). The half-life was 4 ± 2.2 h at CYP2C9 (setting [4]), 5 ± 2.2 h on CYP2C9 (setting [11]), 7.6 ± 3.3 h on CYP2C9 (setting [12]) and 3.7 ± 2.5 h at CYP2C9 (setting [3]).

Turning to `Cc1ncc2n1-c1ccc(Cl)cc1C(c1ccccc1F)=NC2` [Midazolam, midazolam], the CL/F at CYP3A4 (setting [3]) was 66 ± 15 L/h. Besides, the values for the AUC(0-inf) at CYP3A4 (setting [16]), on CYP3A4 (setting [17]) and on CYP3A4 (setting [18]) were 38 ± 11 ng·h/mL, 49 ± 15 ng·h/mL and 51 ± 15 ng·h/mL, respectively. Also, the Cmax was found to be 16 ± 5.7 ng/mL at CYP3A4 (female, human, plasma, oral, probe midazolam, Cmax, + 20 mg ASP8477 once daily (day 7), mean ± SD); 20 ± 5.1 ng/mL on CYP3A4 (female, human, plasma, oral, probe midazolam, Cmax, + 60 mg ASP8477 once daily (day 14), mean ± SD); 21 ± 5.1 ng/mL at CYP3A4 (female, human, plasma, oral, probe midazolam, Cmax, + 100 mg ASP8477 once daily (day 23), mean ± SD). In addition, the Tmax at CYP3A4 (female, human, plasma, oral, probe midazolam, + 20 mg ASP8477 once daily (day 7)) came to 0.52 h; at CYP3A4 (female, human, plasma, oral, probe midazolam, + 60 mg ASP8477 once daily (day 14)), 0.52 h; on CYP3A4 (female, human, plasma, oral, probe midazolam, + 100 mg ASP8477 once daily (day 23)), 0.5 h; on CYP3A4 (female, human, plasma, oral, probe midazolam, cocktail alone (day 1)), 0.52 h. Moreover, the half-life was 5 ± 0.93 h at CYP3A4 (setting [16]), 5.1 ± 0.95 h at CYP3A4 (setting [17]) and 5.1 ± 1.2 h on CYP3A4 (setting [18]).

On CYP2C19 [1] (setting [3]), `COc1ccc2[nH]c([S+]([O-])Cc3ncc(C)c(OC)c3C)nc2c1` (stereo not drawn) [Omeprazole, omeprazole] registered a CL/F of 40 ± 20 L/h. In addition, the AUC(0-inf) on CYP2C19 [1] (setting [19]) turned out to be 1200 ± 520 ng·h/mL; on CYP2C19 [1] (setting [20]) it was 2500 ± 680 ng·h/mL; at CYP2C19 [1] (female, human, plasma, oral, + 100 mg ASP8477 once daily (day 23), mean ± SD), 3300 ± 1100 ng·h/mL; on CYP2C19 [1] (setting [21]), 630 ± 300 ng·h/mL. Besides, the Cmax at CYP2C19 [1] (female, human, plasma, oral, Cmax, + 20 mg ASP8477 once daily (day 7), mean ± SD) came out at 640 ± 190 ng/mL; at CYP2C19 [1] (female, human, plasma, oral, Cmax, + 60 mg ASP8477 once daily (day 14), mean ± SD), 910 ± 260 ng/mL; at CYP2C19 [1] (female, human, plasma, oral, Cmax, + 100 mg ASP8477 once daily (day 23), mean ± SD) it was 1100 ± 250 ng/mL; on CYP2C19 [1] (female, human, plasma, oral, Cmax, cocktail alone (day 1), mean ± SD) it was 320 ± 150 ng/mL. Further, the half-life at CYP2C19 [1] (setting [19]) was 0.77 ± 0.2 h; on CYP2C19 [1] (setting [20]) it was 1.1 ± 0.25 h; at CYP2C19 [1] (setting [21]) it was 0.79 ± 0.17 h. On CYP2C19 [2], the “increase of omeprazole AUCinf” value was 7 fold. The “increase of omeprazole Cmax” value at CYP2C19 [2] was 3.5 fold.
